Source: article PMC5923171, “Novel Zinc-Attenuating Compounds as Potent Broad-Spectrum Antifungal Agents with In Vitro and In Vivo Efficacy” (Antimicrobial Agents and Chemotherapy, 2018)
Values after ≈ are worked out from the molar mass of the structure shown. Where two headings read alike, the source gives them in different places.

How the values were obtained:
[1] = Human hepatocyte (HepG2) proliferation assay; format: cell-based; conditions: human, HepG2 cells, XTT; for EC50 at 24 h: 24 h exposure; for EC50 at 72 h: 72 h exposure
Description: In each well of a 96-well tissue culture plate (GR-655180; Grenier), 10,000 human hepatocytes (HepG2) (85011430; […] Sigma]) supplemented with 2 mM L-[…]-020-1B; Biological Industries), 1% nonessential amino acids (XC-[…]/100; Biosera), and 10% fetal bovine serum (BI-04-007-1A; Biological Industries), and plates were incubated overnight at 37°C and 5% CO2. […] The plate was incubated for a further 24 h or 72 h at 37°C and 5% CO2. The medium was then replaced with 100 μl of freshly prepared 2,3-bis-(2-methoxy-4-nitro-5-sulfophenyl)-2H-tetrazolium-5-carboxanilide salt (XTT) sodium salt solution (0.5 mg/ml of XTT; […]; Sigma) in RPMI 1640 ([…]; Sigma-Aldrich) with 3.83 μg/ml of phenazine methosulfate ([…]; Sigma-Aldrich) and incubated 2 to 3 h at 37°C and 5% CO2 ([43]). The color reaction was measured on Victor X5 plate reader (Perkin-Elmer) at OD450, and the half-maximal effective concentration (EC50) was calculated. Tamoxifen (85256; Sigma) was used as a positive-control compound.

C. albicans SC5314 = assay: Antifungal susceptibility testing (MIC); format: cell-based, Candida albicans; conditions: at least 50% growth inhibition, RPMI, 24 h, 34°C
Description: Antifungal susceptibility testing was carried out as described previously ([38], [39]), with a few modifications. Briefly, for each yeast or mold growth inhibition assay, frozen stocks of yeast cells or spores were diluted to a final concentration of 0.5 × 10^5 to 2.5 × 10^5 CFU/ml in sterile water. ZAC989, ZAC307, and ZAC623 were dissolved in DMSO to 10 mM stocks from which half-log serial dilutions were prepared. Growth assays were subsequently performed by pipetting 3 μl of compound dissolved in DMSO (giving a final concentration of 1.5% DMSO), 100 μl of cell-spore suspension, and 97 μl of 2× RPMI medium (20.8 g/liter of RPMI 1640 medium, 69.06 g/liter of morpholinepropanesulfonic acid [MOPS], 36 g/liter of glucose) into a microtiter plate that was incubated for 24 h (yeasts) or 48 to 72 h (molds) at 34°C. Fungal growth was determined spectrophotometrically by optical density reading of each well at a wavelength of 492 nm on a Victor X5 (Perkin-Elmer) plate reader. […] Standard errors between repeated experiments were generally below 5%. The growth effect of exogenous addition of various divalent metals was evaluated by performing the antifungal susceptibility assay in the presence of 5 μM ZAC989 or ZAC307 and with increasing concentrations (0.003 to 50 μM) of ZnSO4, CuSO4, (NH4)2Fe(SO4)2, MgCl2, and CaCl2.

[2] = Fluorescence-based competition assay using FluoZin-3 (compound-Zn2+ dissociation constant); format: binding; conditions: FluoZin-3 competition, PBS pH 7.4, room temperature; read-out: Compound-Zn^2+ KD
Description: The dissociation constant (Kd) of zinc to zinc-attenuating compounds was determined at room temperature using FluoZin-3 (F24194; […] Testing buffer consisted of PBS (pH 7.4) with 200 nM ZnCl2 and 500 nM FluoZin-3. In a microtiter plate, 98 μl of testing buffer was mixed with 2 μl of compound at a range of concentrations to determine the half-maximal inhibitory concentration (IC50). Testing plates were incubated for 2 min before being read at an excitation wavelength of 485 nm and an emission wavelength of 516 nm with a Fluoroskan Ascent microplate fluorometer (Thermo Fisher Scientific).

ZafA target genes = assay: RT-qPCR of ZafA target genes and genes not regulated by ZafA; format: cell-based, Aspergillus fumigatus; conditions: zinc-limiting conditions, 2 h; for expression levels of the genes not regulated by ZafA: 21 μg/ml ZAC307, 27 μg/ml ZAC989; for expression of the ZafA target genes: 21 μg/ml ZAC307, 27 μg/ml ZAC989, 146 μg/ml EDTA, 10.6 μg/ml TPEN
Description: A total of 1.5 × 10^6 conidia of the wild-type strain (AF14) were inoculated into 20 ml of 0.7× sRPMI, 0.05% Tween 20, and 1.2% ethanol dispensed into 100-ml culture flasks pretreated with an overnight wash in 2 mM EDTA (pH 8.0) to minimize the presence of metal traces, followed by a thorough washing with ultrapure Milli-Q water. The flasks were subsequently sterilized in an oven at 180°C. The cultures were incubated for 20 h at 37°C and 200 rpm before the following were added: (i) pure ethanol to a final concentration of 1.2% (vol/vol) (as a reference for the transcription profiles of all genes under zinc-limiting conditions), (ii) 1.2% ethanol plus a solution of ZnSO4 to a final concentration 20 μM zinc (as a reference for the transcription profiles of all genes under zinc-replete conditions following the zinc shift), (iii) 1.2% ethanol plus a solution of EDTA to a final concentration of 500 μM, (iv) 1.2% ethanol plus a solution of TPEN to a final concentration of 10.6 μg/ml, and (v) a 5 mM solution of each test compound (ZAC307 or ZAC989) dissolved in 80% ethanol to a final concentration of 75 μM and 1.2% ethanol (which correspond to 21 μg/ml and 27 μg/ml, respectively). After compound addition, cultures were incubated for 2 h at 37°C and 200 rpm and mycelia were harvested by filtration through filter paper, washed twice with sterile waterm and snap-frozen in liquid nitrogen. After grinding of the mycelia in the presence of liquid nitrogen, total RNA was extracted using an RNeasy plant minikit (74904; Qiagen) according to the manufacturer's instructions. RNA was eluted in 50 μl of RNase-free water. RNA integrity was verified on 0.8% agarose gels stained with ethidium bromide. RNA was stored at −80°C until use.
Total RNA concentration and quality were determined by UV spectrometry (NanoDrop ND1000 spectrophotometer; Thermo Fisher Scientific), and all samples were brought to a final concentration of 150 ng/μl. Total RNA (1.5 μg) was treated with RQ1 DNase I (M610; Promega) and subsequently assessed by conventional PCR for the complete absence of genomic DNA (gDNA). Subsequently, 1 μg of DNase-treated RNA was reversed transcribed using SuperScript II reverse transcriptase (18064-014; Invitrogen, Thermo Fisher Scientific), with random hexamers (11034731001; Roche Diagnostics) as primers. Prior to qPCRs, cDNA samples were diluted 1:3 in water, except in the case of reactions against the 18S rRNA, for which samples were diluted 1:1,200 in water. qPCRs were performed on a Bio-Rad CFX96 instrument. A typical qPCR mixture (10 μl) contained 13.5 ng of cDNA (32 pg when the qPCR was for 18S rRNA), a specific pair of primers (150 nM final concentration), and the SYBR premix Ex Taq (RR420A; TaKaRa). For all qPCRs, 40 cycles were performed using the following cycling conditions: denaturation at 95°C for 10 s, annealing at 59°C for 20 s, and extension at 72°C for 20 s. The relative expression ratio (rER) was calculated using the threshold cycle (2^−ΔΔCT) method ([42]) using the expression level of the 18S rRNA as an internal reference.

[3] = Candida albicans, SC5314, 24 h, read-out: MIC

| SMILES | EC50 at 24 h [1] | EC50 at 72 h [1] | MIC (C. albicans SC5314; [3]) | Kd [2] | expression levels of the genes not regulated by ZafA (ZafA target genes) | expression of the ZafA target genes (ZafA target genes) | MIC (C. albicans SC5314) |
| --- | --- | --- | --- | --- | --- | --- | --- |
| CN(C)c1cc(-n2nc(-c3ccccc3)cc2O)ncn1 [ZAC307, 2-[6-(dimethylamino)pyrimidin-4-yl]-5-phenyl-pyrazol-3-ol] | > 28 µg/mL | 13.2 ± 0.8 µg/mL (≈ 46.9 µM) | 0.4 µg/mL (≈ 1.42 µM) | 71 nM | reduced expression levels for most of the investigated genes that were not regulated by ZafA | inhibited the expression of the ZafA target genes |  |
| O=C(O)CN(CCN(CC(=O)O)CC(=O)O)CC(=O)O [EDTA] | > 28 µg/mL | > 29 µg/mL | ~0.05 µg/mL (≈ 0.171 µM) | < 10 nM |  | upregulation of the most direct ZafA target genes |  |
| Cc1cc(O)n(-c2cc(N3CC[C@H](Oc4cnccc4C#N)C3)ncn2)n1 [ZAC989, 3-[(3S)-1-[6-(5-hydroxy-3-methyl-pyrazol-1-yl)pyrimidin-4-yl]pyrrolidin-3-yl]oxy-pyridine-4-carbonitrile] | > 28 µg/mL | 6.9 ± 0.7 µg/mL (≈ 19 µM) | 0.4 µg/mL (≈ 1.1 µM) | 13 nM | did not have a noticeable effect | inhibited the expression of the ZafA target genes | 0.6 µg/mL (≈ 1.65 µM) |
| c1ccc(CN(CCN(Cc2ccccn2)Cc2ccccn2)Cc2ccccn2)nc1 [TPEN, N,N,N’,N’-tetrakis(2-pyridylmethyl)-ethylenediamine] | 1.6 ± 0.2 µg/mL (≈ 3.77 µM) | 1.4 ± 0.8 µg/mL (≈ 3.3 µM) | ~0.05 µg/mL (≈ 0.118 µM) | < 10 nM |  | higher expression of the ZafA target genes than attained with EDTA |  |
